Test results published in ChEMBL document CHEMBL4627310, “Design, synthesis and biological evaluation of 3-nitro-1,8-naphthalimides as potential antitumor agents” (Bioorg Med Chem Lett, 2020).

How the values were obtained:
L02 = experiment: Cytotoxicity against human HL7702 cells assessed as cell growth inhibition measured after 48 hrs by MTT assay; type: cell-based; details: L02, 48 h
HepG2 = experiment: Antiproliferative activity against human HepG2 cells assessed as cell growth inhibition measured after 48 hrs by MTT assay; type: functional, cell-based; details: HepG2, 48 h
SMMC-7721 = experiment: Antiproliferative activity against human SMMC7721 cells assessed as cell growth inhibition measured after 48 hrs by MTT assay; type: functional, cell-based; details: SMMC-7721, 48 h
T-24 = experiment: Antiproliferative activity against human T24 cells assessed as cell growth inhibition measured after 48 hrs by MTT assay; type: functional, cell-based; details: T-24, 48 h
A549 = experiment: Antiproliferative activity against human A549 cells assessed as cell growth inhibition measured after 48 hrs by MTT assay; type: functional, cell-based; details: A549, 48 h
SK-OV-3 = experiment: Antiproliferative activity against human SKOV3 cells assessed as cell growth inhibition measured after 48 hrs by MTT assay; type: functional, cell-based; details: SK-OV-3, 48 h

Row | Compound | IC50 (L02) | IC50 (HepG2) | IC50 (SMMC-7721) | IC50 (T-24) | IC50 (A549) | IC50 (SK-OV-3)
1 | O=C1c2cccc3cc([N+](=O)[O-])cc(c23)C(=O)N1Nc1ccccc1 | 59.1 µM | 38.7 µM | > 100 µM | 15.1 µM | 32.1 µM | 61.1 µM
2 | O=C1c2cccc3cc([N+](=O)[O-])cc(c23)C(=O)N1Nc1nc2ccccc2s1 | 65.3 µM | 51.3 µM | > 100 µM | 31.2 µM | 44.1 µM | 58.8 µM
3 | O=C1c2cccc3cc([N+](=O)[O-])cc(c23)C(=O)N1c1nc2ccccc2[nH]1 | > 100 µM | 50.4 µM | 54.1 µM | 54.9 µM | 36.9 µM | 60.5 µM
4 | O=C1c2cccc3cc([N+](=O)[O-])cc(c23)C(=O)N1c1ccc2[nH]c(=O)[nH]c2c1 | > 100 µM | 23.9 µM | 54.7 µM | 58 µM | 44.8 µM | 41.4 µM
